The values that follow come from article PMC6379368, “Extracellular and intracellular small-molecule galectin-3 inhibitors” (Scientific Reports, 2019).

Each structure is given as a SMILES string.

Data set [1] deals with JIMT-1 cells. The data set can be described thus: MTT cell viability assay, JIMT-1. It is filed as cell-based. The note with it: JIMT-1, 72 hours, 0.04–40 µM for 1 and 2, 0.04–20 µM for 3. The method, then: The MTT (3-[4,5-dimethylthiazol-2-yl]−2,5-diphenyltetrazolium bromide) assays were performed as previously described. […] The cells were incubated for 24 hours before addition of galectin-3 inhibitors. The inhibitors were diluted in PBS from their respective stock solution in DMSO (see Galectin-3 inhibitors) and used at final concentrations ranging from 0.04 to 40 μM. DMSO was adjusted to make the final DMSO concentration 0.2% for all inhibitor concentrations, including the control sample (no inhibitor). After 72 hours of treatment, 20 μl of 5 mg/ml MTT solution (in PBS) was added to each well and incubation continued for 1 hour at 37 °C. Thereafter, the MTT containing medium was removed and 100 μl of DMSO was added per well and the plates swirled gently for 10 minutes to dissolve the cells and the purple formazan product precipitate. Absorbance was monitored at 540 nm using a Labsystems iEMS Reader MF (Labsystems Oy, Helsinki, Finland) and the software DeltaSoft II v.4.14 (Biometallics Inc., Princeton, NJ, USA).
For orientation: Tetrazolium assays rely on reduction of a dye to a coloured formazan, in cell work by metabolically active cells.

The subject of data set [2] is JIMT-1 cells. The data set can be described thus: Cell proliferation assay (growth curves), JIMT-1. The note with it: JIMT-1, 5 µM, up to 6 days. Format: cell-based. The protocol: JIMT-1 cells were seeded in 5 cm diameter Petri dishes at a density of 400 000 cells/Petri dish. […] The cells were harvested by trypsinization and the number of cells was determined by counting in a hemocytometer (each day for a total of 6 days).

Data set [3] relates to MIA PaCa-2 cells. The data set can be described thus: MTT assay, MIA PaCa-2 pancreatic cancer cells. The note with it: MIA PaCa-2, 72 hours. It is filed as cell-based. The method, then: The MTT (3-[4,5-dimethylthiazol-2-yl]−2,5-diphenyltetrazolium bromide) assays were performed as previously described. In brief, cells were seeded in 96-well plates (6000 cells/well for MCF-7 and HCC1937 and 5000 cells for JIMT-1 in 180 μl fully-supplemented medium as described under Cell culture). The cells were incubated for 24 hours before addition of galectin-3 inhibitors. The inhibitors were diluted in PBS from their respective stock solution in DMSO (see Galectin-3 inhibitors) and used at final concentrations ranging from 0.04 to 40 μM. DMSO was adjusted to make the final DMSO concentration 0.2% for all inhibitor concentrations, including the control sample (no inhibitor). After 72 hours of treatment, 20 μl of 5 mg/ml MTT solution (in PBS) was added to each well and incubation continued for 1 hour at 37 °C. […] Absorbance was monitored at 540 nm using a Labsystems iEMS Reader MF (Labsystems Oy, Helsinki, Finland) and the software DeltaSoft II v.4.14 (Biometallics Inc., Princeton, NJ, USA). […]
(§1) Fluorescence anisotropy assay
The affinity between inhibitor 1 and the carbohydrate recognition domain (CRD) of galectin-8C and between inhibitor 3 and the CRD of galectin-2, -4N, -4C, 8C, and -9C was determined using the fluorescence anisotropy assay described in the main article. […]

Data set [4] deals with MIA PaCa-2 cells. The data set can be described thus: Growth curves, MIA PaCa-2. The note with it: MIA PaCa-2, 10 µM. Format: cell-based. The method, then:
METHODS (not described in main article)
The AsPC-1, BxPc-3, MIA PaCa-2, and PanC-1 pancreatic cancer cell lines were purchased from the American Type Culture Collection (ATCC) (Manassas, VA, USA). AsPC-1 and BxPc-3 cell lines were cultured in RPMI-1640 medium, and MIA PaCa-2 and PanC-1 in Dulbecco's Modified Eagle Medium (DMEM)/Ham's F12 medium mixture (1:1). The medium of all four pancreatic cancer cell lines was supplemented with 10 % fetal bovine serum (FBS), 100 U/ml penicillin, and 100 μg/ml streptomycin. The L56Br-C1 breast cancer cell line was established at Lund University (Lund, Sweden)1, and was cultured in RPMI-1640 medium supplemented with 10 % heat-inactivated FBS, 100 U/ml penicillin, 100 μg/ml streptomycin, 1 mM non-essential amino acids, and 10 µg/ml insulin. The MCF-10A normal-like breast cell line was obtained from ATCC and was cultured in the same medium mixture as L56Br-C1 with the addition of 20 ng/ml epidermal growth factor, 50 ng/ml cholera toxin, and 500 ng/ml hydrocortisone.
as §1
The affinity between inhibitor 1 and the carbohydrate recognition domain (CRD) of galectin-8C and between inhibitor 3 and the CRD of galectin-2, -4N, -4C, 8C, and -9C was determined using the fluorescence anisotropy assay described in the main article. Experimental conditions used for each galectin […]

Data set [5] can be described thus: Caco-2 permeability assay. The note with it: human, Caco-2, pH 7.4.

The Papp A→B is the apparent permeability from the apical to the basolateral side of a cell layer. Read a low Papp A→B as poor permeation. For orientation: Papp B→A means the apparent permeability from the basolateral to the apical side of a cell layer. For the compound `OC[C@H]1O[C@@H](S[C@@H]2O[C@H](CO)[C@H](O)[C@H](n3cc(-c4cccc(F)c4)nn3)[C@H]2O)[C@H](O)[C@@H](n2cc(-c3cccc(F)c3)nn2)[C@H]1O` [compound 1], the “cell viability (MTT)” value in data set [1] is “no apparent change in cell viability”. Besides, the “cell proliferation (growth curves)” value in data set [2] is “no effect on cell proliferation”. Further, the “toxicity (MTT)” value in data set [3] was “low toxicity”. The “cell proliferation (growth curves)” value in data set [4] is given as “no effect”. In data set [5], the Papp A→B amounted to 0.7 nm/s and the Papp B→A turned out to be 0.5 nm/s.
